# Experimental data from patent US20150352108A1, “AMINO-PYRIMIDINE COMPOUNDS AS INHIBITORS OF TBK1 AND/OR IKK EPSILON” (Alzheimer's Institute of America, priority 2009, published 2015).
# What was measured:
# IKKε = target: T1, IKKε (Homo sapiens, UniProt Q14164); test: In-vitro IKKε kinase assay ([γ33]ATP filter-plate); type: biochemical; conditions: text bins; read-out: IC50 for inhibition of the kinase activity of IKKε
# T1 construct: His-tag; made in house; host or cells: Sf9 insect cells
# T1 sequence (Q14164 1-716): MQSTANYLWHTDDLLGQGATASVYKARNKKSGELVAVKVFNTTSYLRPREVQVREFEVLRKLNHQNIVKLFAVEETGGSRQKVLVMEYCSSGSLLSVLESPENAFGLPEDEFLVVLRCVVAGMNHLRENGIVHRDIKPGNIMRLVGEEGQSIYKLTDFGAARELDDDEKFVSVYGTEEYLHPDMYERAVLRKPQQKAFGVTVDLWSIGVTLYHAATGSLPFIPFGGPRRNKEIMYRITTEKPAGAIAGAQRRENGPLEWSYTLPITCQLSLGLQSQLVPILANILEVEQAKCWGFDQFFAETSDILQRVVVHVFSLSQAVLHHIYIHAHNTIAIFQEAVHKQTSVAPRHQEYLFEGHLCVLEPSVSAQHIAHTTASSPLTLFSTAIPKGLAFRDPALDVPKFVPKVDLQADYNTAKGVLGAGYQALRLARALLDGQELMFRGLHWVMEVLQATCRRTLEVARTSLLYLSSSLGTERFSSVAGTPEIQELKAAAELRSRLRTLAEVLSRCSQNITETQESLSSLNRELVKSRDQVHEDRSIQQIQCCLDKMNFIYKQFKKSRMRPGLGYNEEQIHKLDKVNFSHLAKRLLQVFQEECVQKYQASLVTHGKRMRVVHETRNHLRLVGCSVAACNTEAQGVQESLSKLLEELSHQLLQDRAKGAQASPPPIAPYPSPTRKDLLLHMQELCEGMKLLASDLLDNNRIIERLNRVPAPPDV
# Method in brief: (§1)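 His-tagged IKKε and TBK1 from Sf9 cells were assayed with myelin basic protein or casein and [γ33]ATP at 2×Km ATP (32 μM for IKKε, 60 μM for TBK1). Enzyme was 0.1 or 0.015 μg/ml for IKKε and 0.1 or 0.02 μg/ml for TBK1 (normal/sensitized). Reactions ran 30-45 min, were filter-captured, scintillation-counted, and normalized to DMSO after background subtraction.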
# TBK1 = target: T2, TBK1 (Homo sapiens, UniProt Q9UHD2); test: In-vitro TBK1 kinase assay ([γ33]ATP filter-plate); type: biochemical; conditions: text bins; read-out: IC50 for inhibition of the kinase activity of TBK1
# T2 construct: His-tag; made in house; host or cells: Sf9 insect cells
# T2 sequence (Q9UHD2 1-729): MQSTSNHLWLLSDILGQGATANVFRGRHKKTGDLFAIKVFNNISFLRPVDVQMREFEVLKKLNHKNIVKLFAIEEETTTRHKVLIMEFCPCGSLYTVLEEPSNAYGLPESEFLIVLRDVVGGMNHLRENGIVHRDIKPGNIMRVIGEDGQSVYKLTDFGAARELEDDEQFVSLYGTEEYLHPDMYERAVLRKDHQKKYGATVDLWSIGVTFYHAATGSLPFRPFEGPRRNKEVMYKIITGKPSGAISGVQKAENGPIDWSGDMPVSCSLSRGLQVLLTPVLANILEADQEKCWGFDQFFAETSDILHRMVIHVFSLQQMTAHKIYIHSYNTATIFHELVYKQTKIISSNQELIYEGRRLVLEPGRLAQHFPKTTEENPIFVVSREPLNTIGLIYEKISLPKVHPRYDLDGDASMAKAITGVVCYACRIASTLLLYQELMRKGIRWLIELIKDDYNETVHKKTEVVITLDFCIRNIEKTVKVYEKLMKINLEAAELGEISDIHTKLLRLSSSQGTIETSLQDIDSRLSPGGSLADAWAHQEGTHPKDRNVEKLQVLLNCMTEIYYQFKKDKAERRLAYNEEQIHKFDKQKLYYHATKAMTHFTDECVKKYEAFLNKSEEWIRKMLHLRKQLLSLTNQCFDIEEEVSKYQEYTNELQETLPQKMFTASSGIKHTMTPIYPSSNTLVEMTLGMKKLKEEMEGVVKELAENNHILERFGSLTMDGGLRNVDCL
# Method in brief: as §1
IC50 (IKKε),IC50 (TBK1),Structure (SMILES)
< 5 nM,< 10 nM,"N#Cc1cc(-c2ccnc(Nc3ccc(N4CCOCC4)cc3)n2)ccc1O [Example 130, 2-Hydroxy-5-(2-{[4-(morpholin-4-yl)phenyl]amino}pyrimidin-4-yl)benzonitrile]"
5 to 50 nM,< 10 nM,"CC(=O)N1CCN(C(=O)Nc2ccc(Nc3nccc(-c4ccc(OC5CCOCC5)c(C#N)c4)n3)cc2)CC1 [Example 19, 4-acetyl-N-[4-({4-[3-cyano-4-(tetrahydro-2H-pyran-4-yloxy)phenyl]pyrimidin-2-yl}amino)phenyl] piperazine-1-carboxamide]"
5 to 50 nM,10 to 100 nM,"N#Cc1cc(-c2ccnc(Nc3ccc(N4CCOCC4)cc3)n2)ccc1OCC1CCCCO1 (centres unmarked) [Example 205, 5-(2-{[4-(Morpholin-4-yl)phenyl]amino}pyrimidin-4-yl)-2-(tetrahydro-2H-pyran-2-ylmethoxy) benzonitrile]"
5 to 50 nM,10 to 100 nM,"COc1ccc(-c2ccnc(Nc3cccc(CN(C)CC(=O)N(C)C)c3)n2)cc1C#N [Example 67, N~2~-(3-{[4-(3-Cyano-4-methoxyphenyl)pyrimidin-2-yl]amino}benzyl)-N,N,N~2~- trimethylglycinamide]"
< 5 nM,< 10 nM,"N#Cc1cc(-c2ccnc(Nc3ccc(N4CCOCC4)cc3)n2)ccc1OCCO [Example 239, 2-(2-Hydroxyethoxy)-5-(2-{[4-(morpholin-4-yl)phenyl]amino}pyrimidin-4-yl)benzonitrile]"
50 to 500 nM,100 to 500 nM,"N#Cc1cc(-c2ccnc(Nc3ccc(N4CCOCC4)cc3)n2)ccc1OC1CCN(C(=O)C2(N)CC2)C1 (centres unmarked) [Example 189, 2-({1-[(1-aminocyclopropyl)carbonyl]pyrrolidin-3-yl}oxy)-5-(2-{[4-(morpholin-4-yl)phenyl]amino}pyrimidin-4-yl)benzonitrile]"
5 to 50 nM,10 to 100 nM,"CC(=O)N1CCC(Oc2ccc(-c3ccnc(Nc4ccc(N5CCOCC5)cc4)n3)cc2C#N)CC1 [Example 86, 2-[(1-Acetylpiperidin-4-yl)oxy]-5-(2-{[4-(morpholin-4-yl)phenyl]amino}pyrimidin-4-yl)benzonitrile]"
< 5 nM,< 10 nM,"COc1cc(Nc2nccc(-c3ccc(OC4CCOCC4)c(C#N)c3)n2)ccc1C(N)=O [compound 311, 4-({4-[3-cyano-4-(tetrahydro-2H-pyran-4-yloxy)phenyl]pyrimidin-2-yl}amino)-2-methoxybenzamide]"
5 to 50 nM,10 to 100 nM,"COc1ccc(Nc2nccc(-c3ccc(NC(C)=O)c(C#N)c3)n2)cc1OC [Example 136, N-(2-Cyano-4-{2-[(3,4-dimethoxyphenyl)amino]pyrimidin-4-yl}phenyl)acetamide]"
< 5 nM,< 10 nM,"C[C@H](O)C(=O)N1CCC(Oc2ccc(-c3ccnc(Nc4ccc(C(=O)NCCCN(C)C)cc4)n3)cc2C#N)CC1 [Example 4, 4-({4-[3-cyano-4-({1-[(2S)-2-hydroxypropanoyl]piperidin-4-yl}oxy)phenyl]pyrimidin-2-yl}amino)-N-[3-(dimethylamino)propyl]benzamide]"
< 5 nM,< 10 nM,"N#Cc1cc(-c2ccnc(Nc3ccc(CS(=O)(=O)NCCO)cc3)n2)ccc1OCC1CC1 [compound 637, 1-[4-({4-[3-Cyano-4-(cyclopropylmethoxy)phenyl]pyrimidin-2-yl}amino)phenyl]-N-(2-hydroxyethyl) methanesulfonamide]"
< 5 nM,< 10 nM,"Cc1nnsc1C(=O)Nc1ccc(-c2ccnc(Nc3ccc(N4CCOCC4)cc3)n2)cc1C#N [Example 129, N-[2-cyano-4-(2-{[4-(morpholin-4-yl)phenyl]amino}pyrimidin-4-yl)phenyl]-4-methyl-1,2,3-thiadiazol-5-carboxamide]"
5 to 50 nM,10 to 100 nM,"COc1cc(C#N)cc(-c2ccnc(Nc3cccc(NC(C)=O)c3)n2)c1 [Example 214, N-(3-{[4-(3-Cyano-5-methoxyphenyl)pyrimidin-2-yl]amino}phenyl) acetamide]"
